# Columns and labels:
# [1] = system: Jurkat-DNR cells; assay: Direct cytotoxicity (Toxic Dose 50) without chemotherapeutic; details: Jurkat-DNR cells, inhibitor without chemotherapeutic
# Description: Cells (ABCB1, Jurkat-DNR or ABCG2 Ig-MXP3) are incubated with the test compound (3 order of magnitude concentration range) over a 3-day and 7-day period in the presence of the inhibitor and chemotherapeutic (ABCB1, DNR or ABCG2 MTX), such that a cell concentration of at least 1×10^5 cells/mL is maintained. Cell viability is determined by trypan blue staining and enumeration under light microscopy. […] A chemoreversal index (Chemoreversal 50, CR50) is determined from the viability assessment. Using a similar approach, a direct cytotoxicity index (Toxic Dose 50, TD50) is determined by assessment of cell death of cells grown in media alone.
# Cells (ABCB1, Jurkat-DNR or ABCG2 Ig-MXP3) were incubated with the test compound in a 3 order of magnitude concentration range over three and seven day periods in the presence of the inhibitor and chemotherapeutic (ABCB1, 100 nM DNR or ABCG2 30 nM MTX), such that a cell concentration of at least 1×10^5 cells mL^−1 was maintained. Cell viability was determined by trypan blue staining and enumeration under light microscopy. […] A chemoreversal index (Chemoreversal 50, CR50) was determined from the viability assessment. Using a similar approach, a direct cytotoxicity index (Toxic Dose 50, TD50) was determined by assessment of cell death of cells grown in media alone.
# [2] = system: Ig-MXP3 cells; assay: as above; assay type: cell-based; details: Ig-MXP3 cells, inhibitor without chemotherapeutic
compound,measurement,setting,value
"COc1ccc2c3c([nH]c2c1)[C@H](CC(C)C)N1C(=O)[C@H](CCC(=O)OC(C)(C)C)NC(=O)[C@@H]1C3 [Compound 4, reference compound]",TD50 ABCB1,[1],2.84 µM
same,TD50 ABCG2,[2],20.00 µM
